Reference: BindingDB's records for doi:10.7270/Q2SN07DK (Burnham Center For Chemical Genomics, 2010)

Molecular target: Beta-galactosidase (Escherichia coli, UniProt Q8VNN2)
Assay: PubChem AID 485352

Chain of Beta-galactosidase (Q8VNN2 whole entry): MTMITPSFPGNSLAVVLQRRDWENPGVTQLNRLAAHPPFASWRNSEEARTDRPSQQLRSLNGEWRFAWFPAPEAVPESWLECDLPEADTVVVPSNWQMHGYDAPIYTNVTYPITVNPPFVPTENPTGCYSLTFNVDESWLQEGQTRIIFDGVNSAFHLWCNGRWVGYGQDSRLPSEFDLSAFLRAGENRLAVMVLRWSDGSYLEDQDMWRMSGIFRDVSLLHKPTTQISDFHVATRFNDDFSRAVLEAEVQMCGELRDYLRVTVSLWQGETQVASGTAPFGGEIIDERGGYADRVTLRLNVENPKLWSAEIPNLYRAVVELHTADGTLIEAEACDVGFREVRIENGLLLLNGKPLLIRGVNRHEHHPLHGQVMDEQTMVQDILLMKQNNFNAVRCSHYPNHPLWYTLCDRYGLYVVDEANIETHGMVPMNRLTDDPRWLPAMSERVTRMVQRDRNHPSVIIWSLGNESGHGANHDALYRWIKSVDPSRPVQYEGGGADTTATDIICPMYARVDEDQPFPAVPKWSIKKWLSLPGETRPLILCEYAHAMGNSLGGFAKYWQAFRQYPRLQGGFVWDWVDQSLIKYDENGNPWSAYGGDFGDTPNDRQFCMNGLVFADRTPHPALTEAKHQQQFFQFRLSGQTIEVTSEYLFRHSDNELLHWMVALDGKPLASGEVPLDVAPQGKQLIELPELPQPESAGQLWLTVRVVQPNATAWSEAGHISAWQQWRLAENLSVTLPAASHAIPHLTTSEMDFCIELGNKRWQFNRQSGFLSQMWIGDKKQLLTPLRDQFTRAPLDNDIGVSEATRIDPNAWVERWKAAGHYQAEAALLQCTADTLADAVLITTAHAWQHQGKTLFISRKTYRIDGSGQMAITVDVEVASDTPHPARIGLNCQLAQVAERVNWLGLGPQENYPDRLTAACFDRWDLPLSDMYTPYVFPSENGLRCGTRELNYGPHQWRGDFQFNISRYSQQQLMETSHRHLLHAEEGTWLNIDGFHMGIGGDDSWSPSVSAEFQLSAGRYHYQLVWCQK

CCOC(=O)C1C(C)=NC2=C(C(=O)CC(c3cccs3)C2)C1c1cccs1 (stereo unspecified) [2-Methyl-5-oxo-4,7-di-thiophen-2-yl-1,4,5,6,7,8-hexahydro-quinoline-3-carboxylic acid ethyl ester]
EC50: 39.3 µM
